Measurements as given in PubChem BioAssay (NCI).
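Values below derive from 48-hour exposures of cells grown in 96-well plates, with endpoints linearly interpolated between the two concentrations bracketing the appropriate inhibition level. Definition used: TGI = concentration required for complete inhibition of growth.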

Assays:
Assay in all cases: NCI anticancer screen, dose series, 48 h
UACC-62 melanoma = tested on: UACC-62 melanoma
HCT-116 colon = tested on: HCT-116 colon
UO-31 renal = tested on: UO-31 renal
UACC-257 melanoma = tested on: UACC-257 melanoma
ACHN renal = tested on: ACHN renal
U251 CNS = tested on: U251 CNS
TK-10 renal = tested on: TK-10 renal
K-562 leukemia = tested on: K-562 leukemia
KM12 colon = tested on: KM12 colon
SF-539 CNS = tested on: SF-539 CNS

With Cc1nc2c(n1-c1ccccc1)C(=O)c1ccccc1C2=O the TGI (UACC-62 melanoma) was > 100 µM, the TGI (HCT-116 colon) was 73.1 µM and the TGI (UO-31 renal) was > 100 µM. For the same molecule, the TGI (UACC-257 melanoma) was 51.5 µM, the TGI (ACHN renal) was > 100 µM and the TGI (U251 CNS) was > 100 µM. For the same molecule, the TGI (TK-10 renal) was > 100 µM, the TGI (K-562 leukemia) was > 100 µM and the TGI (KM12 colon) was > 100 µM. The TGI (SF-539 CNS) was > 100 µM.

In the case of C=CCOC1(CC=C)C(=O)OC2C(O)COC21O (stereo not given), the TGI (UACC-62 melanoma) is reported as > 100 µM, the TGI (HCT-116 colon) is reported as > 100 µM and the TGI (UO-31 renal) is reported as > 100 µM. For the same molecule, the TGI (UACC-257 melanoma) was > 100 µM, the TGI (ACHN renal) was > 100 µM and the TGI (U251 CNS) was > 100 µM. For the same molecule, the TGI (TK-10 renal) was > 100 µM, the TGI (K-562 leukemia) was > 100 µM and the TGI (KM12 colon) was > 100 µM. For the same molecule, the TGI (SF-539 CNS) was > 100 µM.

In the case of COC(=O)c1cc(C)ccc1/C=C1\Cc2c(C)cc(C)cc2C1=O, the TGI (UACC-62 melanoma) is reported as 65.1 µM, the TGI (HCT-116 colon) is reported as > 100 µM and the TGI (UO-31 renal) is reported as > 85.8 µM. For the same molecule, the TGI (UACC-257 melanoma) was > 30.1 µM, the TGI (ACHN renal) was > 100 µM and the TGI (U251 CNS) was 42.9 µM. For the same molecule, the TGI (TK-10 renal) was 40 µM, the TGI (K-562 leukemia) was > 100 µM and the TGI (KM12 colon) was > 100 µM. For the same molecule, the TGI (SF-539 CNS) was 42.3 µM.

With CNC(=O)N(CCC#N)CCCN(C(=O)N(C)C)c1ccccc1 the TGI (UACC-62 melanoma) was > 100 µM, the TGI (HCT-116 colon) was > 100 µM and the TGI (UO-31 renal) was > 100 µM. For the same molecule, the TGI (UACC-257 melanoma) was > 100 µM, the TGI (ACHN renal) was > 100 µM and the TGI (U251 CNS) was > 100 µM. The TGI (TK-10 renal) was > 100 µM, the TGI (K-562 leukemia) was > 100 µM and the TGI (KM12 colon) was > 100 µM. The TGI (SF-539 CNS) was > 100 µM.

Cc1nc2cccc(F)c2c(=O)n1-c1nnc(C(F)(F)F)s1 was tested, and the TGI (UACC-62 melanoma) was > 10 µM, the TGI (HCT-116 colon) was > 10 µM and the TGI (UO-31 renal) was > 10 µM. For the same molecule, the TGI (UACC-257 melanoma) was > 10 µM, the TGI (ACHN renal) was > 10 µM and the TGI (U251 CNS) was > 10 µM. The TGI (TK-10 renal) was > 10 µM, the TGI (K-562 leukemia) was > 10 µM and the TGI (KM12 colon) was > 10 µM. For the same molecule, the TGI (SF-539 CNS) was > 10 µM.

For CC1CN=C(c2ccc(CN3CCC(C4CCN(Cc5ccc(C6=NCC(C)N6)cc5)CC4)CC3)cc2)N1 (stereo not given), the TGI (UACC-62 melanoma) was 41.7 µM, the TGI (HCT-116 colon) was 34 µM and the TGI (UO-31 renal) was 58.4 µM. For the same molecule, the TGI (UACC-257 melanoma) was 52.4 µM, the TGI (ACHN renal) was 75.9 µM and the TGI (U251 CNS) was 29.6 µM. For the same molecule, the TGI (TK-10 renal) was 57.5 µM, the TGI (K-562 leukemia) was 44.8 µM and the TGI (KM12 colon) was 31.8 µM. For the same molecule, the TGI (SF-539 CNS) was 37.7 µM.

For O=c1c2cc(Br)ccc2ncn1COCc1ccccc1, the TGI (UACC-62 melanoma) was > 100 µM, the TGI (HCT-116 colon) was > 100 µM and the TGI (UO-31 renal) was > 100 µM. For the same molecule, the TGI (UACC-257 melanoma) was > 100 µM, the TGI (ACHN renal) was 74 µM and the TGI (U251 CNS) was > 100 µM. The TGI (TK-10 renal) was > 100 µM, the TGI (K-562 leukemia) was > 100 µM and the TGI (KM12 colon) was > 100 µM. For the same molecule, the TGI (SF-539 CNS) was > 100 µM.

In the case of CC1=CC[C@](C)(O)[C@@]2(C)CC[C@H]3C(=C(C)C)C(=O)C[C@]3(C)C[C@H]12, the TGI (UACC-62 melanoma) is reported as 47.1 µM, the TGI (HCT-116 colon) is reported as > 50 µM and the TGI (UO-31 renal) is reported as > 50 µM. The TGI (UACC-257 melanoma) was > 50 µM, the TGI (ACHN renal) was > 50 µM and the TGI (U251 CNS) was > 50 µM. For the same molecule, the TGI (TK-10 renal) was > 50 µM, the TGI (K-562 leukemia) was 17 µM and the TGI (KM12 colon) was > 50 µM. For the same molecule, the TGI (SF-539 CNS) was > 50 µM.

With COc1cc2c(cc1OC)C(=O)/C(=C/c1ccc(O)cc1)CC2 the TGI (UACC-62 melanoma) was > 10 µM, the TGI (HCT-116 colon) was > 10 µM and the TGI (UO-31 renal) was 4.32 µM. For the same molecule, the TGI (UACC-257 melanoma) was > 10 µM, the TGI (ACHN renal) was > 10 µM and the TGI (U251 CNS) was > 10 µM. The TGI (TK-10 renal) was > 10 µM, the TGI (K-562 leukemia) was > 10 µM and the TGI (KM12 colon) was > 10 µM. For the same molecule, the TGI (SF-539 CNS) was > 10 µM.

For COc1ccccc1NC(=S)N/N=C/c1ccccn1, the TGI (UACC-62 melanoma) was 3.75 µM, the TGI (HCT-116 colon) was 0.639 µM and the TGI (UO-31 renal) was 24.4 µM. For the same molecule, the TGI (UACC-257 melanoma) was 0.416 µM, the TGI (ACHN renal) was 8.9 µM and the TGI (U251 CNS) was 12.5 µM. The TGI (TK-10 renal) was > 46.4 µM, the TGI (K-562 leukemia) was > 31.6 µM and the TGI (KM12 colon) was > 31.6 µM. The TGI (SF-539 CNS) was 5.07 µM.

With Nc1ccc2c(c1)NC(=O)[C@@H]1CCCN1C2=O the TGI (UACC-62 melanoma) was > 100 µM, the TGI (HCT-116 colon) was > 100 µM and the TGI (UO-31 renal) was > 100 µM. For the same molecule, the TGI (UACC-257 melanoma) was > 100 µM, the TGI (ACHN renal) was > 100 µM and the TGI (U251 CNS) was > 100 µM. The TGI (TK-10 renal) was > 100 µM, the TGI (K-562 leukemia) was > 100 µM and the TGI (KM12 colon) was > 100 µM. For the same molecule, the TGI (SF-539 CNS) was > 100 µM.

CC(=O)NC(=O)NC1=NCCC(=O)N1CCc1c[nH]c2ccccc12 was tested, and the TGI (UACC-62 melanoma) was > 100 µM, the TGI (HCT-116 colon) was > 100 µM and the TGI (UO-31 renal) was > 100 µM. For the same molecule, the TGI (UACC-257 melanoma) was > 100 µM, the TGI (ACHN renal) was > 100 µM and the TGI (U251 CNS) was > 100 µM. The TGI (TK-10 renal) was > 100 µM, the TGI (K-562 leukemia) was > 100 µM and the TGI (KM12 colon) was > 100 µM. The TGI (SF-539 CNS) was > 100 µM.

In the case of Cc1ccc(/C=N\NC(=O)c2ccncc2)s1, the TGI (UACC-62 melanoma) is reported as > 100 µM, the TGI (HCT-116 colon) is reported as > 100 µM and the TGI (UO-31 renal) is reported as > 100 µM. For the same molecule, the TGI (UACC-257 melanoma) was > 100 µM, the TGI (ACHN renal) was > 100 µM and the TGI (U251 CNS) was > 100 µM. For the same molecule, the TGI (TK-10 renal) was > 100 µM, the TGI (K-562 leukemia) was > 100 µM and the TGI (KM12 colon) was > 100 µM. For the same molecule, the TGI (SF-539 CNS) was > 100 µM.

In the case of COc1cc2c(c(OC)c1)C(=O)O[C@H](C)CCCC/C=C/C2, the TGI (UACC-62 melanoma) is reported as > 58 µM, the TGI (HCT-116 colon) is reported as 38.2 µM and the TGI (UO-31 renal) is reported as > 30.8 µM. For the same molecule, the TGI (UACC-257 melanoma) was > 33.9 µM, the TGI (ACHN renal) was > 30.6 µM and the TGI (U251 CNS) was 30.5 µM. For the same molecule, the TGI (TK-10 renal) was > 33.8 µM, the TGI (K-562 leukemia) was > 100 µM and the TGI (KM12 colon) was > 35.2 µM. It also gave a TGI (SF-539 CNS) of 25.9 µM.

In the case of C[C@]12CC[C@H]3[C@@H](CCC4=C(Br)C(=O)C=C[C@@]43O)[C@@H]1CCC2=O, the TGI (UACC-62 melanoma) is reported as > 100 µM, the TGI (HCT-116 colon) is reported as 80.1 µM and the TGI (UO-31 renal) is reported as > 100 µM. The TGI (UACC-257 melanoma) was 63.8 µM, the TGI (ACHN renal) was > 100 µM and the TGI (U251 CNS) was > 100 µM. The TGI (TK-10 renal) was 94.2 µM, the TGI (K-562 leukemia) was > 100 µM and the TGI (KM12 colon) was > 100 µM. For the same molecule, the TGI (SF-539 CNS) was > 100 µM.

With COc1ccc2c(c1)C(=O)C1CCC(=O)N1C2c1ccc2c(c1)OCO2 (stereo not given) the TGI (UACC-62 melanoma) was 29.9 µM, the TGI (HCT-116 colon) was 14.9 µM and the TGI (UO-31 renal) was 22.4 µM. It also gave a TGI (UACC-257 melanoma) of 40.4 µM, a TGI (ACHN renal) of 38.3 µM and a TGI (U251 CNS) of 31.5 µM. The TGI (TK-10 renal) was 86.1 µM, the TGI (K-562 leukemia) was 39.8 µM and the TGI (KM12 colon) was 22.2 µM. For the same molecule, the TGI (SF-539 CNS) was 42.7 µM.
